Measured values as given in patent publication US10517889B2, “Modulators of SMAD7 expression” (Ionis Pharmaceuticals, Inc., priority 2017, dated 2019).
Strand notation (5' to 3'): a small letter for the sugar, then the base; units joined by * are phosphorothioate-linked, units joined directly phosphodiester-linked; [ ] holds rarer units or linkages, { } end groups; capitals alone tell only the bases. e = 2'-O-(2-methoxyethyl) (MOE); [5mC] = 5-methylcytosine; d = 2'-deoxy (DNA)

How the values were obtained:
[1] = tested on: human SMAD7 mRNA; experiment: Dose-dependent inhibition of human SMAD7 mRNA expression in Hep3B cells (Example 3, Study 1 and 2); type: cell-based; conditions: electroporation; for % inhibition of SMAD7 mRNA expression: approximately 16 hours; for IC50: Study 1 (312.5-20000 nM)
Method in brief: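 Hep3B cells, 20,000 per well, electroporated with antisense oligonucleotide at 0.31, 1.25, 5.00 or 20.00 μM (first series) or 0.74, 2.22, 6.67 or 20.00 μM (second series). After ~16 h, SMAD7 mRNA measured by RT-qPCR (RTS5062), normalised to RIBOGREEN total RNA. Percent inhibition vs untreated cells; IC50 derived.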

[2] = tested on: human SMAD7 mRNA; experiment: Antisense inhibition of human SMAD7 mRNA expression in Hep3B cells by 5-10-5 MOE gapmers, single concentration, electroporation, RT-PCR (Example 1, Study 1 and 2); type: cell-based
Method in brief: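 Hep3B cells (20,000/well) electroporated with 5-10-5 MOE gapmer at 5,000 nM or 15,000 nM for approximately 24 h. SMAD7 mRNA quantified by real-time PCR with primer probe set RTS5062 and normalized to RIBOGREEN total RNA. Values are percent inhibition relative to untreated controls.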

[3] = 312.5 nM, Study 1, relative to untreated control cells
[4] = electroporation, 15,000 nM antisense oligonucleotide (Study 2), 5-10-5 MOE gapmers targeting SEQ ID NO: 1 and 2
[5] = Study 2, electroporation with 15,000 nM antisense oligonucleotide, 5-10-5 MOE gapmers targeting SEQ ID NO: 1 and 2
[6] = electroporation, 15,000 nM, approximately 24 hours, relative to untreated control cells, gapmers targeting SEQ ID NO: 1 and 2

| Substance | % inhibition of SMAD7 mRNA expression [1, 3] | % inhibition of SMAD7 mRNA expression ([1]; 1250.0 nM, Study 1) | % inhibition of SMAD7 mRNA expression ([1]; 5000.0 nM, Study 1) | % inhibition of SMAD7 mRNA expression ([1]; 20000.0 nM, Study 1) | IC50 [1] | % inhibition of SMAD7 mRNA expression [2, 4] | % Inhibition [2, 5] | % Inhibition of SMAD7 mRNA ([2]; electroporation with 15,000 nM antisense oligonucleotide (Study 2), 5-10-5 MOE gapmers targeting SEQ ID NO: 1 and 2) | % inhibition of SMAD7 mRNA expression ([2]; electroporation, 5,000 nM, approximately 24 hours, relative to untreated control cells, gapmers targeting SEQ ID NO: 1 and 2) | % inhibition of SMAD7 mRNA expression [2, 6] | % inhibition of SMAD7 mRNA expression [2, 5] |
| --- | --- | --- | --- | --- | --- | --- | --- | --- | --- | --- | --- |
| 771850 (antisense eT*e[5mC]*e[5mC]*e[5mC]*eA*d[5mC]*dT*dT*d[5mC]*dT*d[5mC]*d[5mC]*dT*d[5mC]*dT*eG*eG*e[5mC]*eT*eG) [compound 771850] | 0% | 8% | 20% | 44% | > 20 µM | 58% | – | – | – | – | – |
| 483663 (antisense e[5mC]*eA*eG*e[5mC]*e[5mC]*dT*d[5mC]*dT*dT*dG*dA*d[5mC]*dT*dT*d[5mC]*e[5mC]*eG*eA*eG*eG) [compound 483663] | 0% | 0% | 14% | 27% | > 20 µM | 41% | 56% | 35% | 47% | 49% | – |
| 771902 (antisense eG*eG*eG*eT*eT*d[5mC]*dT*d[5mC]*d[5mC]*dA*dG*d[5mC]*d[5mC]*dG*d[5mC]*eT*e[5mC]*eA*eG*eA) [compound 771902] | 0% | 17% | 29% | 59% | 13 µM | – | 77% | – | – | – | – |
| 771733 (antisense eT*eG*eA*e[5mC]*eA*dG*d[5mC]*d[5mC]*dA*d[5mC]*dA*dA*dG*dT*d[5mC]*eA*e[5mC]*eA*eA*e[5mC]) [compound 771733] | 0% | 0% | 26% | 61% | 16 µM | – | – | – | – | 75% | – |
| 771838 (antisense eG*eA*eA*e[5mC]*eT*d[5mC]*d[5mC]*dT*dG*d[5mC]*dA*dG*dG*dA*dT*eG*eA*eG*eG*eG) [compound 771838] | 0% | 24% | 26% | 43% | > 20 µM | – | 53% | – | – | – | – |
| 771572 (antisense e[5mC]*eT*eT*eG*eG*dG*dA*d[5mC]*dT*dG*d[5mC]*dA*dA*dA*d[5mC]*e[5mC]*eT*e[5mC]*eT*e[5mC]) [compound 771572] | 0% | 10% | 38% | 13% | > 20 µM | – | – | – | – | – | 37% |
| 771734 (antisense e[5mC]*eT*e[5mC]*eA*eA*dA*d[5mC]*d[5mC]*dT*dT*dT*d[5mC]*dA*dG*dA*e[5mC]*e[5mC]*eA*eT*e[5mC]) [compound 771734] | 0% | 0% | 30% | 53% | > 20 µM | – | 64% | – | – | – | – |
| 771414 (eT*e[5mC]*eG*eG*e[5mC]*dT*dG*dT*d[5mC]*d[5mC]*dG*dT*d[5mC]*dG*d[5mC]*e[5mC]*e[5mC]*e[5mC]*eT*eT; antisense) [compound 771414] | 0% | 2% | 43% | 33% | > 20 µM | – | – | – | – | 65% | – |
| 771769 (antisense eG*eG*e[5mC]*eT*eG*dG*dG*dA*dA*dT*d[5mC]*dA*dG*dA*dA*e[5mC]*eT*eT*eG*eG) [compound 771769] | 10% | 0% | 3% | 53% | > 20 µM | 71% | – | – | – | – | – |
